From US20190322676A1, “CERAMIDE GALACTOSYLTRANSFERASE INHIBITORS FOR THE TREATMENT OF DISEASE” (BioMarin Pharmaceutical Inc., priority 2016, published 2019)
Structures can show the parent of a compound that is named as a salt.

Biological target: T1, human CGT (ceramide galactosyltransferase), CHO/CGT lysate (Homo sapiens, UniProt Q16880)
T1 construct: Full-length human CGT cDNA was cloned into the BamH1/Xho1 site of pcDNA3.1 (+); expressed in transfected cells; host or cells: Chinese hamster ovary (CHO) cells; lysate prepared with M-PER
T1 sequence (Q16880 21-541): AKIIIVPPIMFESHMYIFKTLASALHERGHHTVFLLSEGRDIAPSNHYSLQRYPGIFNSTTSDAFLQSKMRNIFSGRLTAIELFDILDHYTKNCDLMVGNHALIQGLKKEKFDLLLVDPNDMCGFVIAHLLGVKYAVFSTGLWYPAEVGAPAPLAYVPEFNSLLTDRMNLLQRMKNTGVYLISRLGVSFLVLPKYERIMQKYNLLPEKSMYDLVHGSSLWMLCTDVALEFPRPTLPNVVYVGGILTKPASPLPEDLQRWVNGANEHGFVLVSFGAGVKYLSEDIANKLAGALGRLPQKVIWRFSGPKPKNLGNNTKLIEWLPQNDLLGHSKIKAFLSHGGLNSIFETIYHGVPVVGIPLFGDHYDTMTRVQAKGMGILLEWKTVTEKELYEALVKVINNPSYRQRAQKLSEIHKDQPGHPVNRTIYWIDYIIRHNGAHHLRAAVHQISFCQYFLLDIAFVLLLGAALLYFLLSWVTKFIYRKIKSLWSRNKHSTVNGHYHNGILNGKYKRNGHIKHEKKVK
Assay: CGT enzyme assay, RapidFire/MS/MS readout with 0.01% Tween added (Table 1 ranges with two asterisks **)
Type: biochemical
Conditions: CGT enzymatic assay; range with two asterisks (**): RapidFire/MS/MS method with 0.01% Tween added
Procedure, shortened: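 Lysate (4 μg) of CHO cells transfected with full-length human CGT incubated 1 h at 37 °C with compound (0.001–50 μM) in pH 7.2 HEPES buffer with 10 μM C6-NBD-dihydro-ceramide, 17.5 μM UDP-galactose, Mg2+/Mn2+, CHAPS, BSA, 0.5% DMSO; ** set also contained 0.01% Tween 80. Product quantified by RapidFire/MS/MS, normalized to internal standard; IC50 from sigmoidal variable-slope fits.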

Structure (SMILES) | IC50 [µM]
N[C@H]1CCN(C(=O)[C@H](NS(=O)(=O)c2ccc(OCC3CCCCC3)cc2)C(F)(F)c2ccc(-c3ccc(Cl)cc3)cc2)C1 [Compound 171-2, N—((S)-3-((S)-3-aminopyrrolidin-1-yl)-1-(4′-chloro-[1,1′-biphenyl]-4-yl)-1,1-difluoro-3-oxopropan-2-yl)-4-(cyclohexylmethoxy) benzenesulfonamide trifluoroacetate] | 30 to 100
CC(C)Oc1cc(C(F)(F)[C@H](NS(=O)(=O)c2ccc3cc(OC4CCCC4)ccc3c2)C(=O)N2CCC(N)CC2)ccc1Cl [Compound 172-1, (R)—N-(3-(4-aminopiperidin-1-yl)-1-(4-chloro-3-isopropoxyphenyl)-1,1-difluoro-3-oxopropan-2-yl)-6-(cyclopentyloxy)naphthalene-2-sulfonamide trifluoroacetate] | 1 to 10
CC(C)Oc1cc(C(F)(F)[C@@H](NS(=O)(=O)c2ccc3cc(OC4CCCC4)ccc3c2)C(=O)N2CCC(N)CC2)ccc1Cl [Compound 172-2, (S)—N-(3-(4-aminopiperidin-1-yl)-1-(4-chloro-3-isopropoxyphenyl)-1,1-difluoro-3-oxopropan-2-yl)-6-(cyclopentyloxy) naphthalene-2-sulfonamide trifluoroacetate] | 10 to 30
NC(=O)C1CCN(C(=O)[C@@H](NS(=O)(=O)c2ccc3cc(OC4CCCC4)ccc3c2)C(F)(F)c2ccc(-c3ccc(Cl)cc3)cc2)CC1 [Compound 173-1, (R)-1-(3-(4′-chloro-[1,1′-biphenyl]-4-yl)-2-((6-(cyclopentyloxy)naphthalene)-2-sulfonamido)-3,3-difluoropropanoyl)piperidine-4-carboxamide] | 1 to 10
NC(=O)C1CCN(C(=O)[C@H](NS(=O)(=O)c2ccc3cc(OC4CCCC4)ccc3c2)C(F)(F)c2ccc(-c3ccc(Cl)cc3)cc2)CC1 [Compound 173-2, (S)-1-(3-(4′-chloro-[1,1′-biphenyl]-4-yl)-2-((6-(cyclopentyloxy)naphthalene)-2-sulfonamido)-3,3-difluoropropanoyl)piperidine-4-carboxamide] | 30 to 100
NC(=NO)C1CCN(C(=O)[C@@H](NS(=O)(=O)c2ccc3cc(OC4CCCC4)ccc3c2)C(F)(F)c2ccc(-c3ccc(Cl)cc3)cc2)CC1 [Compound 174-1, (R)-1-(3-(4′-chloro-[1,1′-biphenyl]-4-yl)-2-((6-(cyclopentyloxy)naphthalene)-2-sulfonamido)-3,3-difluoropropanoyl)-N′-hydroxypiperidine-4-carboximidamide] | 1 to 10
NC(=NO)C1CCN(C(=O)[C@H](NS(=O)(=O)c2ccc3cc(OC4CCCC4)ccc3c2)C(F)(F)c2ccc(-c3ccc(Cl)cc3)cc2)CC1 [Compound 174-2, (S)-1-(3-(4′-chloro-[1,1′-biphenyl]-4-yl)-2-((6-(cyclopentyloxy)naphthalene)-2-sulfonamido)-3,3-difluoropropanoyl)-N′-hydroxypiperidine-4-carboximidamide] | 30 to 100
NC1CCN(C(=O)[C@@H](NC(=O)C(=O)c2cc3ccc(OC4CCCC4)cc3s2)C(F)(F)c2ccc(-c3ccc(Cl)cc3)cc2)CC1 [Compound 175-1, (R)—N-(3-(4-aminopiperidin-1-yl)-1-(4′-chloro-[1,1′-biphenyl]-4-yl)-1,1-difluoro-3-oxopropan-2-yl)-2-(6-(cyclopentyloxy)benzo[b]thiophen-2-yl)-2-oxoacetamide trifluoroacetate] | 10 to 30
NC1CCN(C(=O)[C@H](NC(=O)C(=O)c2cc3ccc(OC4CCCC4)cc3s2)C(F)(F)c2ccc(-c3ccc(Cl)cc3)cc2)CC1 [Compound 175-2, (S)—N-(3-(4-aminopiperidin-1-yl)-1-(4′-chloro-[1,1′-biphenyl]-4-yl)-1,1-difluoro-3-oxopropan-2-yl)-2-(6-(cyclopentyloxy)benzo[b]thiophen-2-yl)-2-oxoacetamide trifluoroacetate] | 30 to 100
O=C([C@@H](NS(=O)(=O)c1ccc2cc(OC3CCCC3)ccc2c1)C(F)(F)c1ccc(-c2ccc(Cl)cc2)cc1)N1Cc2cn[nH]c2C1 [Compound 176-1, (R)—N-(1-(4′-chloro-[1,1′-biphenyl]-4-yl)-3-(4,6-dihydropyrrolo[3,4-c]pyrazol-5(1H)-yl)-1,1-difluoro-3-oxopropan-2-yl)-6-(cyclopentyloxy)naphthalene-2-sulfonamide] | < 1
O=C([C@H](NS(=O)(=O)c1ccc2cc(OC3CCCC3)ccc2c1)C(F)(F)c1ccc(-c2ccc(Cl)cc2)cc1)N1Cc2cn[nH]c2C1 [Compound 176-2, (S)—N-(1-(4′-chloro-[1,1′-biphenyl]-4-yl)-3-(4,6-dihydropyrrolo[3,4-c]pyrazol-5(1H)-yl)-1,1-difluoro-3-oxopropan-2-yl)-6-(cyclopentyloxy)naphthalene-2-sulfonamide] | 30 to 100
NC1CC2CCC(C1)N2C(=O)[C@@H](NS(=O)(=O)c1ccc2cc(OC3CC3)ccc2c1)C(F)(F)c1ccc(Br)cc1 (stereo partly drawn) [Compound 177-1, N-((2R)-3-(3-amino-8-azabicyclo[3.2.1]octan-8-yl)-1-(4-bromophenyl)-1,1-difluoro-3-oxopropan-2-yl)-6-cyclopropoxynaphthalene-2-sulfonamide trifluoroacetate] | 1 to 10
NC1CC2CCC(C1)N2C(=O)[C@H](NS(=O)(=O)c1ccc2cc(OC3CC3)ccc2c1)C(F)(F)c1ccc(Br)cc1 (stereo partly drawn) [Compound 177-2, N-((2S)-3-(3-amino-8-azabicyclo[3.2.1]octan-8-yl)-1-(4-bromophenyl)-1,1-difluoro-3-oxopropan-2-yl)-6-cyclopropoxynaphthalene-2-sulfonamide trifluoroacetate] | 10 to 30
N[C@H]1CCN(C(=O)[C@@H](NS(=O)(=O)c2ccc3cc(OC4CCCC4)ccc3c2)C(F)(F)c2ccc(-c3ccc(Cl)cc3)cc2)C[C@@H]1F [Compound 178-1, N—((R)-3-((3 S,4S)-4-amino-3-fluoropiperidin-1-yl)-1-(4′-chloro-[1,1′-biphenyl]-4-yl)-1,1-difluoro-3-oxopropan-2-yl)-6-(cyclopentyloxy)naphthalene-2-sulfonamide] | 1 to 10
N[C@H]1CCN(C(=O)[C@H](NS(=O)(=O)c2ccc3cc(OC4CCCC4)ccc3c2)C(F)(F)c2ccc(-c3ccc(Cl)cc3)cc2)C[C@@H]1F [Compound 178-2, N—((S)-3-((3 S,4S)-4-amino-3-fluoropiperidin-1-yl)-1-(4′-chloro-[1,1′-biphenyl]-4-yl)-1,1-difluoro-3-oxopropan-2-yl)-6-(cyclopentyloxy) naphthalene-2-sulfonamide] | 1 to 10
N[C@@H]1CCN(C(=O)[C@H](NS(=O)(=O)c2ccc3cc(OC4CCCC4)ccc3c2)C(F)(F)c2ccc(-c3ccc(Cl)cc3)cc2)C[C@H]1F [Compound 178-3, N—((S)-3-((3R,4R)-4-amino-3-fluoropiperidin-1-yl)-1-(4′-chloro-[1,1′-biphenyl]-4-yl)-1,1-difluoro-3-oxopropan-2-yl)-6-(cyclopentyloxy)naphthalene-2-sulfonamide] | 30 to 100
O=C([C@@H](NS(=O)(=O)c1ccc(OCC2CCCCC2)cc1)C(F)(F)c1ccc(-c2ccc(Cl)cc2)cc1)N1C[C@H]2CNC[C@H]2C1 [Compound 179-1, N—((R)-1-(4′-chloro-[1,1′-biphenyl]-4-yl)-1,1-difluoro-3-((3aR,6aS)-hexahydropyrrolo[3,4-c]pyrrol-2(1H)-yl)-3-oxopropan-2-yl)-4-(cyclohexylmethoxy) benzenesulfonamide trifluoroacetate] | 1 to 10
O=C([C@H](NS(=O)(=O)c1ccc(OCC2CCCCC2)cc1)C(F)(F)c1ccc(-c2ccc(Cl)cc2)cc1)N1C[C@H]2CNC[C@H]2C1 [Compound 179-2, N—((S)-1-(4′-chloro-[1,1′-biphenyl]-4-yl)-1,1-difluoro-3-((3aR,6aS)-hexahydropyrrolo[3,4-c]pyrrol-2(1H)-yl)-3-oxopropan-2-yl)-4-(cyclohexylmethoxy)benzenesulfonamide trifluoroacetate] | 30 to 100
N[C@H]1CC2CCC1N2C(=O)[C@@H](NS(=O)(=O)c1ccc2cc(OC3CCCC3)ccc2c1)C(F)(F)c1ccc(-c2ccc(Cl)cc2)cc1 (stereo partly drawn) [Compound 180-1, N-((2R)-3-((2S)-2-amino-7-azabicyclo[2.2.1]heptan-7-yl)-1-(4′-chloro-[1,1′-biphenyl]-4-yl)-1,1-difluoro-3-oxopropan-2-yl)-6-(cyclopentyloxy)naphthalene-2-sulfonamide] | 1 to 10
N[C@H]1CC2CCC1N2C(=O)[C@H](NS(=O)(=O)c1ccc2cc(OC3CCCC3)ccc2c1)C(F)(F)c1ccc(-c2ccc(Cl)cc2)cc1 (stereo partly drawn) [Compound 180-2, N-((2S)-3-((2S)-2-amino-7-azabicyclo[2.2.1]heptan-7-yl)-1-(4′-chloro-[1,1′-biphenyl]-4-yl)-1,1-difluoro-3-oxopropan-2-yl)-6-(cyclopentyloxy)naphthalene-2-sulfonamide] | 10 to 30
